Measured values: patent US7737127B2, “2-propynyl adenosine analogs having A2A agonist activity and compositions thereof” (University of Virginia Patent Foundation, priority 2001, dated 2010)
Where two headings read alike, the source gives them in different places.

What was measured:
A3 AR = target: T1, A3 AR (Homo sapiens, UniProt P0DMS8); experiment: Radioligand competition binding (125I-ABA) to human A3 AR in HEK 293 cell membranes; conditions: for Ki: Ki from competition binding, 125I-ABA, HEK 293 cell membranes; for A3/A2A: selectivity ratio A3 over A2A
T1 sequence (P0DMS8 1-318): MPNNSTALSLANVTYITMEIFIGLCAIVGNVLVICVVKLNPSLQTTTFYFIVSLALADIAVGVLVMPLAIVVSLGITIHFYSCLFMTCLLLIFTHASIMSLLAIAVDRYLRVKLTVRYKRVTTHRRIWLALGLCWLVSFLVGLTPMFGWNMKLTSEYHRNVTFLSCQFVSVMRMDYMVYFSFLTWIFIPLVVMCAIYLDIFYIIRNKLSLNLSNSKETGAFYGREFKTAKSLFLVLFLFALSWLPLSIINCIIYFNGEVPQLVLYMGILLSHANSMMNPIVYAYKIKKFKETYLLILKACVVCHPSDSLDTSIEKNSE

human A1 AR = target: T2, human A1 AR (Homo sapiens, UniProt P30542); experiment: Radioligand competition binding (125I-ABA) to human A1 AR in CHO K1 cell membranes; conditions: for Ki: Ki from competition binding, 125I-ABA, CHO K1 cell membranes; for A1/A2A: selectivity ratio A1 over A2A
T2 sequence (P30542 1-326): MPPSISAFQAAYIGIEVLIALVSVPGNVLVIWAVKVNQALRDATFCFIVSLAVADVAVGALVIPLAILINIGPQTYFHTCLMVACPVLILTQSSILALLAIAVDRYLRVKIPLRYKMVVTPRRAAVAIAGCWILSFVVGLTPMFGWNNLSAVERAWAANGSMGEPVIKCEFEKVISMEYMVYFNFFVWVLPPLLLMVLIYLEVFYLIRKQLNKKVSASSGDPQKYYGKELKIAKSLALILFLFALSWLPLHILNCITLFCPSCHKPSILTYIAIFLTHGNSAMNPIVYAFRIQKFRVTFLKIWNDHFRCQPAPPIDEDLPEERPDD

[1] = system: liver ischemia/reperfusion injury; experiment: Liver ischemia/reperfusion injury, serum GPT; format: in vivo, Mice; conditions: administered 6 hours prior to I/R injury; serum GPT 24 hours later; vs. a control compound and ATL146e; FIG. 17
Procedure: Mice were anesthetized by intraperitoneal injection of ketamine 100 mg/kg and xylazine 10 mg/kg. Glycopyrrolate (Robinul-V™) 0.05 mg/kg was delivered subcutaneously before the operation. The ambient temperature was controlled in the range of 24° C. to 26° C. Mice were placed on a 37° C. heat pad with their core temperature monitored by a TH-8 Thermalert™ Monitoring Thermometer (Physitemp) and maintained at 36-37° C. by a TCAT-1A Temperature Control and Alarm Unit (Physitemp) during the entire procedure. After midline laparotomy, a microaneurysm clip was applied to the hepatic triad above the bifurcation to clamp the flow of the hepatic artery, portal vein, and bile duct. […]
Serum GPT (ALT) levels were measured using a Transaminase kit (505, Sigma). Briefly, 20 μL serum sample was mixed with 100 (L pre-heated Alanine-α-KG substrate and incubated in a 37° C. water bath for 30 minutes. Then we added 100 (L Sigma Color Reagent to the reaction and left it at room temperature for 20 minutes. We stopped the reaction with 1.0 ml 0.4N sodium hydroxide solution. Absorbance of each sample at 505 nm was measured and converted into SF unit/ml.
The test compounds were administered 6 hours prior to I/R injury. Tissue protection is measured by amount of Serum GPT present in the in a serum sample 24 hours later, with smaller GPT concentrations indicating better liver function.

[2] = target: recombinant human A2A receptors (Homo sapiens, UniProt P29274); experiment: Radioligand competition binding to recombinant human A2A receptors in Sf9 cell membranes; conditions: Ki from competition binding, Sf9 cell membranes
Sequence of recombinant human A2A receptors (P29274 whole entry): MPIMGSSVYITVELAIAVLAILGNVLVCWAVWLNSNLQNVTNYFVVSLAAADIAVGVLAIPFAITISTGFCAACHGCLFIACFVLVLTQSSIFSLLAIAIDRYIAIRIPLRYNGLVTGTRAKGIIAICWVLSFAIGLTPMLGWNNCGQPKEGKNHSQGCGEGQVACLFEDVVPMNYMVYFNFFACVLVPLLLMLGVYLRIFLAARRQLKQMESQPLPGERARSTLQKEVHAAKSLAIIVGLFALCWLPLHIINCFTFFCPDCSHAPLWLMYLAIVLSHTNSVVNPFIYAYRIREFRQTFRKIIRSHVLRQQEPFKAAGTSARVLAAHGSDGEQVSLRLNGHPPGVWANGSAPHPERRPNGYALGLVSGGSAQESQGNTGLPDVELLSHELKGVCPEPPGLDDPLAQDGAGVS

human neutrophils = experiment: Human neutrophil oxidative activity, luminol-enhanced chemiluminescence; format: cell-based; conditions: for EC50: Homo sapiens, Neutrophil, read-out: PMN oxid (-log EC50) (converted); for EC50 / PMN oxid (-log EC50): human neutrophil experiment w/o Rolipram; for PMN oxid + roli (-log EC50): human neutrophil experiment w/Rolipram
Summary of the method: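 Purified human neutrophils (5–10×10^5/ml) pre-incubated 30 min at 37 °C with the A2A agonist, ± rolipram and ± TNF-α (1 U/ml), then stimulated with fMLP (1 μM final). Peak luminol-enhanced chemiluminescence expressed as percent of no-agonist control. EC50 from three donors.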

Compound | Ki (A3 AR; A3 ± SEM) | A3/A2A (A3 AR) | Ki (human A1 AR; A1 ± SEM) | A1/A2A (human A1 AR) | Ki ([2]; A2A ± SEM) | EC50 (human neutrophils) | PMN oxid + roli (-log EC50) (human neutrophils) | Ki (A3 AR; read-out: A3 ± SEM) | Ki (human A1 AR; read-out: A1 ± SEM) | Ki ([2]; read-out: A2A ± SEM) | PMN oxid (-log EC50) (human neutrophils) | duration of action for liver tissue protection (Serum GPT) [1]
COC(=O)C1CCC(CC#Cc2nc(N)c3ncn(C4OC(CO)C(O)C4O)c3n2)CC1 (stereo not shown) [JR-2145] |  | 150.7 |  | 42.2 |  |  | 8.57 | 101 ± 22 nM | 28.3 ± 7.3 nM | 0.7 ± 0.16 nM | 7.19 | 
CCNC(=O)[C@H]1O[C@@H](n2cnc3c(N)nc(C#CCN4CCN(C(=O)OCC)CC4)nc32)C(O)C1O (stereo in doubt) [JR-3213, 4-{3-[6-Amino-9-(5-ethylcarbamoyl-3,4-dihydroxytetrahydrofuran-2-yl)-9H-purin-2-yl]-prop-2-ynyl}-piperazine-1-carboxylic acid ethyl ester] | 42.3 ± 18.3 nM | 22.3 | 15.8 ± 0.48 nM | 8.3 | 1.9 ± 0.4 nM | 3.47 nM | 9.11 |  |  |  |  | 
CCNC(=O)[C@H]1O[C@@H](n2cnc3c(N)nc(C#CCC4CCC(C(=O)OCCNC(=O)OC(C)(C)C)CC4)nc32)C(O)C1O (stereo in doubt) [JR-3021, 4-{3-[6-Amino-9-(5-ethylcarbamoyl-3,4-dihydroxy-tetrahydrofuran-2-yl)-9H-purin-2-yl]-prop-2-ynyl}-cyclohexanecarboxylic acid 2-tert-butoxycarbonylamino-ethyl ester] | 41 ± 1 nM | 25.6 | 107 ± 10 nM | 66.9 | 1.6 ± 0.5 nM | 26.3 nM | 8.58 |  |  |  |  | 
CCNC(=O)[C@H]1O[C@@H](n2cnc3c(N)nc(C#CC4(O)CCCC(C)C4)nc32)C(O)C1O (stereo partly shown) [JR-3179, 5-[6-Amino-2-(1-hydroxy-3-methyl-cyclohexylethynyl)-purin-9-yl]-3,4-dihydroxytetrahydrofuran-2-carboxylic acid ethylamide] | 12.6 ± 3.6 nM | 28.6 | 8.5 ± 0.3 nM | 19.3 | 0.4 ± 0.05 nM | 0.661 nM | 10.07 |  |  |  |  | 
CCNC(=O)[C@H]1O[C@@H](n2cnc3c(N)nc(C#CC4(O)CCCCC4C)nc32)C(O)C1O (single isomer, unassigned) [JR-3181B, 5-[6-Amino-2-(1-hydroxy-2-methyl-cyclohexylethynyl)-purin-9-yl]-3,4-dihydroxytetrahydrofuran-2-carboxylic acid ethylamide] | 38.9 ± 4.8 nM | 58.1 | 24.2 ± 6.2 nM | 36.1 | 0.7 ± 0.07 nM |  | 9.67 |  |  |  | 8.57 | 
CCNC(=O)[C@H]1O[C@@H](n2cnc3c(N)nc(C#CC4(O)CCC(CC)CC4)nc32)C(O)C1O (stereo in doubt) [JR-3149, 5-[6-Amino-2-(4-ethyl-1-hydroxy-cyclohexylethynyl)-purin-9-yl]-3,4-dihydroxytetrahydrofuran-2-carboxylic acid ethylamide] | 7.3 ± 1.9 nM | 13.5 | 3.8 ± 0.4 nM | 7.0 | 0.5 ± 0.05 nM | 2.19 nM | 9.63 |  |  |  |  | 

Second part, led by results:

Ki (A3 AR; A3 ± SEM) | A3/A2A (A3 AR) | Ki (human A1 AR; A1 ± SEM) | A1/A2A (human A1 AR) | Ki ([2]; A2A ± SEM) | EC50 (human neutrophils) | PMN oxid + roli (-log EC50) (human neutrophils) | Ki (A3 AR; read-out: A3 ± SEM) | Ki (human A1 AR; read-out: A1 ± SEM) | Ki ([2]; read-out: A2A ± SEM) | PMN oxid (-log EC50) (human neutrophils) | Compound | duration of action for liver tissue protection (Serum GPT) [1]
0.7 ± 0.02 nM | 0.8 | 4.8 ± 0.3 nM | 5.2 | 0.92 ± 0.2 nM | 0.339 nM | 10.15 |  |  |  |  | CCNC(=O)[C@H]1O[C@@H](n2cnc3c(N)nc(C#C[C@]4(O)CCC[C@@H](C)C4)nc32)C(O)C1O (stereo in doubt) [JR-3223, 5-[6-Amino-2-(1-hydroxy-3-methylcyclohexylethynyl)purin-9-yl]-3,4-dihydroxytetrahydrofuran-2-carboxylic acid ethylamide] | longer duration of action
71.7 nM | 117.5 |  | 0.0 | 0.61 ± 0.06 nM | 3.47 nM |  |  |  |  |  | CCNC(=O)[C@H]1O[C@@H](n2cnc3c(N)nc(C#CCC4CCN(C(=O)OCC(C)C)CC4)nc32)C(O)C1O (stereo in doubt) [JR-4011, 4-{3-[6-Amino-9-(5-ethylcarbamoyl-3,4-dihydroxytetrahydrofuran-2-yl)-9H-purin-2-yl]-prop-2-ynyl}-piperidine-1-carboxylic acid isobutyl ester] | 
 | 0.0 | 14.4 nM | 3.8 | 3.82 ± 0.95 nM | 13.8 nM |  |  |  |  |  | CCNC(=O)[C@H]1O[C@@H](n2cnc3c(N)nc(C#CCN4CCC(C(=O)OCC)CC4)nc32)C(O)C1O (stereo in doubt) [JR-3279, 1-{3-[6-Amino-9-(5-ethylcarbamoyl-3,4-dihydroxytetrahydrofuran-2-yl)-9H-purin-2-yl]-prop-2-ynyl}-piperidine-4-carboxylic acid ethyl ester] | 
31.3 ± 9.3 nM | 9.5 | 13.8 ± 0.5 nM | 4.2 | 3.29 ± 0.49 nM | 43.7 nM | 8.42 |  |  |  |  | CCNC(=O)[C@H]1O[C@@H](n2cnc3c(N)nc(C#CCN4CCCCC4C(=O)OC)nc32)C(O)C1O (stereo partly shown) [JR-3253, 1-{3-[6-Amino-9-(5-ethylcarbamoyl-3,4-dihydroxytetrahydrofuran-2-yl)-9H-purin-2-yl]-prop-2-ynyl}-piperidine-2-carboxylic acid methyl ester] | 
65.2 nM | 67.2 | 34.6 ± 1.4 nM | 35.7 | 0.97 ± 0.33 nM | 1.7 nM |  |  |  |  |  | CCNC(=O)[C@H]1O[C@@H](n2cnc3c(N)nc(C#CCC4CCN(C(=O)OC)CC4)nc32)C(O)C1O (stereo in doubt) [JR-4007, 4-{3-[6-Amino-9-(5-ethylcarbamoyl-3,4-dihydroxytetrahydrofuran-2-yl)-9H-purin-2-yl]-prop-2-ynyl}-piperidine-1-carboxylic acid methyl ester] | 
